Results on nine molecules are retold here after ChEMBL document CHEMBL1201862, “PubChem BioAssay data set” (2004).

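Results reflect a 48-hour exposure of cells in 96-well plates to compound at five concentrations. GI50 marks 50% less growth.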 Activity calls are given as the source filed them. No stated cut-off is given here; in the data, active = GI50 up to about 1.1 µM and inactive = higher. Some results are limits rather than exact numbers.

Holding throughout (assay): NCI anticancer screen, dose series, 48 h
Experiment [1] relates to NCI-H23.
The test system of experiment [2] is NCI-H226.
The subject of experiment [3] is SNB-19.
The subject of experiment [4] is CAKI-1.
Experiment [5] deals with HOP-92.
The test system of experiment [6] is SF-268.
The test system of experiment [7] is HCT-15.
The test system of experiment [8] is KM12.
Experiment [9] concerns 786-0.
In experiment [10] the test system is OVCAR-3.
In experiment [11] the test system is MOLT-4.
The subject of experiment [12] is SW-620.
In experiment [13] the test system is OVCAR-4.
The subject of experiment [14] is HCT-116.
The subject of experiment [15] is IGROV-1.
The test system of experiment [16] is Hs-578T.
Experiment [17] relates to MDA-MB-231.
The subject of experiment [18] is PC-3.
The subject of experiment [19] is MDA-N.

`O=C(COc1ccccc1)NS(=O)(=O)c1ccccc1`: the GI50 in experiment [1], in experiment [2], in [3], in experiment [4], in experiment [5] and in experiment [6] was > 100 µM (inactive) each time. Moreover, the GI50 is > 100 µM in experiment [7]; > 100 µM (inactive) in experiment [8]; > 100 µM (inactive) in [9]; > 100 µM (inactive) in experiment [10]; > 100 µM (inactive) in [11]; > 100 µM (inactive) in experiment [12]. The GI50 in experiment [13], in experiment [14] and in experiment [15] was > 100 µM (inactive) throughout.

Consider `CC(=O)NNc1nc(C)c(C(/C=C/c2ccc(Cl)cc2)=N\N=C(N)N)s1`, for which the GI50 in experiment [1], in experiment [2], in [3], in [4], in experiment [5] and in experiment [6] was > 100 µM (inactive) throughout. In addition, the GI50 in experiment [7] was > 100 µM; in experiment [8] it was > 100 µM (inactive); in [9], > 100 µM (inactive); in experiment [10], > 100 µM (inactive); in experiment [11], > 100 µM (inactive); in [12] it was > 100 µM (inactive). Moreover, the GI50 in experiment [13], in experiment [14] and in [15] was > 100 µM (inactive) in each case.

`c1csc(-c2ccc(-c3ccc(-c4ccc(-c5cccs5)s4)s3)s2)c1`: the GI50 in experiment [1], in experiment [2], in [16], in experiment [4], in [5] and in experiment [6] was > 100 µM (inactive) each time. The GI50 is > 100 µM in experiment [7]; > 100 µM (inactive) in experiment [9]; > 100 µM (inactive) in [10]; 31.6 µM (inactive) in experiment [11]; > 100 µM (inactive) in experiment [12]; > 100 µM (inactive) in experiment [14]. Besides, the GI50 in [15] was > 100 µM (inactive).

As for `COC(=O)C12OCC34C(CC5C(C)C6=CC(=O)OC6=CC5(C)C3C(O)C1O)OC(=O)C(O)C24` (stereo not given), the GI50 in [1] is 0.238 µM (active); in experiment [2] it was 0.293 µM (active); in experiment [3] it was 0.0371 µM (active); in experiment [4], 4.08 µM (inactive); in experiment [5], 0.231 µM (active); in experiment [6], 0.504 µM (active). The GI50 is 1.48 µM in experiment [7]; 1.21 µM (inactive) in experiment [8]; 0.594 µM (active) in experiment [9]; 0.655 µM (active) in experiment [10]; 0.153 µM (active) in experiment [11]; 0.497 µM (active) in experiment [12]. The GI50 is 1.25 µM (inactive) in experiment [13], 0.306 µM (active) in [14] and 0.23 µM (active) in experiment [15].

As to `N#CC(C(=O)CCC(=O)Nc1ccc(Cl)cc1)c1ccc(Cl)cc1` (stereo not given), the GI50 was > 100 µM (inactive) in experiment [1]; > 100 µM (inactive) in experiment [2]; > 100 µM (inactive) in experiment [3]; 92.5 µM (inactive) in experiment [4]; > 100 µM (inactive) in [5]; 93.3 µM (inactive) in [6]. The GI50 in [7] was > 100 µM; in experiment [8], 91.8 µM (inactive); in [9], > 100 µM (inactive); in experiment [10] it was > 100 µM (inactive); in experiment [11], > 100 µM (inactive); in experiment [12], > 100 µM (inactive). The GI50 in experiment [13] is > 100 µM (inactive); in [14], 65.9 µM (inactive); in [15], 89.5 µM (inactive).

On to `CCC(=O)c1c(NOC2OCC(OC(C)=O)C(OC(C)=O)C2OC(C)=O)nc(OC)n(C)c1=O` (stereo not given), for which the GI50 in experiment [1], in [2], in experiment [3], in experiment [4], in [5] and in [6] was > 100 µM (inactive) throughout. In addition, the GI50 was > 100 µM in experiment [7]; > 100 µM (inactive) in experiment [8]; > 100 µM (inactive) in experiment [9]; > 100 µM (inactive) in experiment [10]; > 100 µM (inactive) in experiment [11]; > 100 µM (inactive) in experiment [12]. For the same molecule, the GI50 in experiment [13], in [14] and in [15] was > 100 µM (inactive) in each case.

For the molecule `O=C(Nc1ccc(N=C=S)cc1Cl)c1cc(Br)cc(Br)c1O`, the GI50 is 21.5 µM (inactive) in experiment [17]; 26.7 µM (inactive) in [1]; 18.5 µM (inactive) in [2]; 25.6 µM (inactive) in experiment [16]; 24.6 µM (inactive) in [3]; 43.1 µM (inactive) in [4]. The GI50 in [5] was 14.1 µM (inactive); in experiment [6] it was 36.9 µM (inactive); in experiment [7] it was 16.4 µM; in experiment [8] it was 27 µM (inactive); in experiment [9], 26.3 µM (inactive); in experiment [10], 36.7 µM (inactive). Moreover, the GI50 in experiment [18] is 19 µM (inactive); in [11], 24.2 µM (inactive); in experiment [12] it was 27.3 µM (inactive); in experiment [13] it was 27.1 µM (inactive); in experiment [14], 16.3 µM (inactive); in [15], 19.4 µM (inactive).

For the molecule `Cc1ccc(N/N=C/C2=CC(C)(C)C(C#N)(C#N)C(O)=C2C#N)cc1`, the GI50 is 44.6 µM (inactive) in experiment [17]; 39.4 µM (inactive) in experiment [1]; > 100 µM (inactive) in [2]; > 100 µM (inactive) in experiment [16]; 86.5 µM (inactive) in [3]; 31.6 µM (inactive) in experiment [4]. Besides, the GI50 was 5.89 µM (inactive) in [5]; 49 µM (inactive) in experiment [6]; 54.8 µM (inactive) in experiment [19]; 32.4 µM (inactive) in experiment [8]; 66.4 µM (inactive) in experiment [9]; 36.6 µM (inactive) in experiment [10]. In addition, the GI50 in experiment [18] was 7.23 µM (inactive); in experiment [11], 30.5 µM (inactive); in experiment [12] it was 24.8 µM (inactive); in experiment [13], 96.8 µM (inactive); in [14], 35.4 µM (inactive); in experiment [15], 21 µM (inactive).

Regarding `COc1ccc2cc3[n+](cc2c1OC)CCc1cc2c(cc1-3)OCO2` [BERBERINE CHLORIDE], the GI50 was 36.1 µM (inactive) in [17]; 7.35 µM (inactive) in experiment [1]; 10 µM (inactive) in [16]; 8.38 µM (inactive) in [3]; 36.7 µM (inactive) in [5]; 5.2 µM (inactive) in experiment [6]. Also, the GI50 in [8] was 7.71 µM (inactive); in [9], > 49.4 µM (inactive); in [18], 26.9 µM (inactive); in experiment [12] it was 40.6 µM (inactive); in [15], 40.6 µM (inactive).
